Laboratory results reported in patent US8088602B1, “Manipulation of RNA stability and protein synthesis using thio-phosphate” (priority 2001, dated 2012).

Key:
[1] = system: YEpFLAG-1-BAP (bacterial alkaline phosphatase) expression in yeast cells (BJ3505 strain); test: Recombinant FLAG-tagged secreted bacterial alkaline phosphatase synthesis in yeast (immuno test strips, dilution assays); assay type: cell-based, S. cerevisiae
Description: (§1) The stabilization of RNA by growth in thio-phosphate media can be used to enhance the protein synthesis of many proteins. The optimal level of thio-phosphate to phosphate must be determined as well absolute levels of total phosphate that are tolerable. Growth in all cases is enhanced by using enriched media prepared by depleting inherent phosphate. To deplete phosphate by precipitation, MgSO4 and ammonium hydroxide are added to the media of choice. YPD (1% Bacto-yeast extract, 2% Bacto-peptone, 2% Dextrose) phosphate depleted media is prepared by adding 10 ml of 1 M MgSO4 and 10 ml of concentrated NH4OH per liter and allowing the ppt. to form by leaving the solution at room temp. for 30 min. The media is then filtered and the pH readjusted to pH 6.5. Using this procedure, the detectable amount of ortho-phosphate remaining is less than ˜200 mg/liter. […] It is best to innoculate at high densities using, for example a 1:20 dilution. Insufficient innoculum (low density) will result in poor growth.
To test for optimal protein synthesis conditions the following system can be used: a recombinant YEp plasmid containing a secreted bacterial alkaline phosphatase gene (YEpFLAG-1-BAP, Sigma; U.S. Pat. Nos. 4,703,004, 4,782,137 EP Patent 150126, and JP Patent 1983150) marked with the FLAG™ peptide DYKDDDDK. […]

yeast actin mRNA = test: Northern analysis of actin mRNA in yeast grown in thio-phosphate media; assay type: cell-based, S. cerevisiae; details: 100% thio-phosphate substituted media; ~0.5 ug total RNA
Description: To maximize mRNA levels cells are grown in minimal media substituted with 100% thio-phosphate. Bacteria and yeast grow quite well in such media. For E. coli minimal media is prepared as follows: (Na3SPO3.XH2O) 10-15 g/L and KCL (1.5 g/L) (NH4)2SO4, 1 g/L; sodium citrate 2H2O, 0.5 g/L; Adjust pH to 7.4 and sterile filter. Then add the following: MgSO4.7H2O, 0.2 g/L (sterilized separately as a conc. solution); (thiamine HCL, 5 ug/L; glucose, 4 g/L sterilized separately by filtration). Glucose can also be sterilized by autoclaving separately. FeCl2 (500 ug/L) can also be added as needed. Thio-phosphate contains variable amounts of water (10-15 per molecule) not included in molecular weight calculations. It is almost 50% water by weight. Note pH control is important in maximizing thio-phosphate stability. […] When adapting to other bacteria determine the sensitivity of the organism to thio-phosphate levels. Optimize for KCL as this often is provided as a salt of normal phosphate. […]
(§2) The mRNA is in the size range expected for a mature mRNA in which the intron sequences have been removed (FIG. 1). […] The probe is hybridized according to S&S protocols and detected by chemilumescence using polaroid film. […] Extracellular nucleases are detected by monitoring the degradation of genomic DNA by gel electrophoresis.

Extracellular nucleases = test: Extracellular nuclease activity of yeast (degradation of genomic DNA by gel electrophoresis); assay type: cell-based
Description: (§3) An additional assay was developed to examine the effects of thio-phosphate media on the synthesis of secreted proteins. Yeast excrete many extracellular hydrolases and the mRNAs for […] adenine, histidine, leucine, lysine, and uracil (Sp, BIO101). Various S. cerevisiase strains are able to grow in minimal media containing thio-phosphate: multiploid fleischmann's yeast strain, haploid strain ATTC# 32119, and diploid strain BJ3505 (Sigma). The haploid strain Pichia canadensis ATTC# 14355 grew better with a yeast nitrogen based media (YNB, BIO 101) as opposed to EMM. Note that the optimal level of total phosphate for yeast is ˜1 g/L which is much less than that for bacteria. Again if necessary to improve growth use nutrient broths depleted of phosphate (see below).
The mRNA is in the size range expected for a mature mRNA in which the intron sequences have been removed (FIG. 1). […] The actin probe is prepared by amplification of yeast genomic DNA (act), YFL039C, Saccharomyces Genome Database http://genome-www2.standford.edu) with the following PCR primers: • SEQ ID NO. 1: 5′ GAGGTTGCTGCTTTGGTTATTG 3′ 22 bp • SEQ ID NO. 2: 5′ TTGTGGTGAACGATAGATGGAC 3′ 22 bp PCR cycling parameters using a BIO-RAD thermal cycler and Taq polymerase are as follows: initial denaturation at 94° C. for 4 min. followed by 33 cycles of denaturation at 94° C. for 30 sec, annealing at 45° C. for 30 sec, elongation at 72° C. for 3 min. followed by a final elongation at 72° C. for 7 min. […] Total RNA (˜0.5 ug) is separated on a 2% high resolving agarose gel and transferred to a neutral nylon membrane. The probe is hybridized according to S&S protocols and detected by chemilumescence using polaroid film. […] Extracellular nucleases are detected by monitoring the degradation of genomic DNA by gel electrophoresis.

lipase = test: Secreted lipase of yeast, qualitative assays; assay type: cell-based
Description: as §3
as §2, with “1). […] The actin probe is prepared by amplification of yeast genomic DNA (act), YFL039C, Saccharomyces Genome Database http://genome-www2.standford.edu) with the following PCR primers: • SEQ ID NO. 1: 5′ GAGGTTGCTGCTTTGGTTATTG 3′ 22 bp • SEQ ID NO.” for “1).”

[2] = system: pFLAG-ATS-BAP (bacterial alkaline phosphatase) expression in JM109; test: Bacterial expression of pFLAG-ATS-BAP, colormetric staining of whole cells (NBT/BCIP); assay type: cell-based, bacterial cells (JM109)
Description: Bacterial expression can be examined using the recombinant vector pFLAG-ATS-BAP (Sigma Chemical; U.S. Pat. Nos. 4,703,004, 4,782,137 EP Patent 150126, and JP Patent 1983150) marked with bacterial alkaline phosphatase and under the control of a tac/lac hybrid promoter induced by IPTG. This control plasmid is expressed in the periplasmic fraction by virtue of the N-terminal OmpA signal at high levels. Enzyme activity is easily visualized using colormetric staining of whole cells. 0.5 ml of cells are pelleted and resuspended in pH 9.5 buffer (0.1 M Tris-HCL, 0.1 M NaCL, 50 mM MgCl2) along with 10 ul of NBT (nitroblue tetrazolium, 50 mg/ml) and 5 ul of BCIP (5-bromo-4-chloro-3-indolylphosphate, 50 mg/ml). After sufficient time (there may be a slight delay in the activity of induced cells) the samples are compared and then centrifuged to compare pellets. Various ratios of modified phosphate to phosphate are examined: 0%, 10%, 15%, 20%, 25%, 30%, 40%, 50%, 60, 70%, 80%, 90% and 100%. […] To determine the optimal ratio a lower level of lactose is used in the media to prevent the formation of inclusion bodies during the analysis (M9 minimal media made with 0.1% rather than 0.5% lactose, total phosphate levels of 10 g/L). […]

beta-galactosidase = test: Recombinant beta-galactosidase colormetric assay (X-gal) in bacterial cells; assay type: cell-based; details: for effect on beta-galactosidase enzyme activity: 2% lactose minimal media
Description: A recombinant vector containing the beta-galactosidase gene (Promega's TA vector expressed from an SP6 promoter) can also be examined. Enzyme activity is detected via a colormetric assay. Cells are grown in minimal media made with 2% lactose rather than glucose for optimal induction of beta-galactosidase. After several (˜4-5) hrs bacterial cells are removed to assay for enzyme activity. To 0.5 ml of cells add 0.5 ml of 200 mM Tris-HCL, pH 7.5 and 5 ul of 1% SDS (sodium dodecyl sulfate). Then add 10 ul of IPTG (100 mM) and 20 ul of X-gal (50 mg/ml), mix and incubate at 37° C. […] In the presence of glucose which represses the enzyme, the activity is much lower but can be enhanced 10 fold by using a 50% ratio of thio-phosphate to phosphate.

bacteria = test: Soluble protein levels, biuret reagent, bacteria; assay type: cell-based; details: low ratios of thio-phosphate to phosphate (10-30%)
Description: (§4) At higher ratios a slight decline in growth appears to account for a reduction in total protein synthesis detected. To measure protein synthesis 4 ml of cells are pelleted washed in PBS and resuspended in lysozyme solution for bacteria. Cells are then pelleted again and washed in PBS to remove lysozyme. Cells are then lysed in 400 ul of 1% SDS and 0.2 N NaOH. The extract is then diluted in water to 2 ml and assayed using the biuret reagent (Gornall et al (1949) J. Biol. Chem. 177:751). Yeast are assayed without lysozyme.

yeast = test: Soluble protein levels, biuret reagent, yeast; assay type: cell-based; details: low ratios of thio-phosphate to phosphate (10-30%)
Description: as §4

Carassius auratus = test: Tolerance of fish kept in conditioned media with thio-phosphate; assay type: in vivo; details: up to 250 mg/L of thio-phosphate in conditioned media, two days
Description: (§5) Thio-phosphate can also be utilized by whole animals and/or complex tissues. Carassius auratus incorporates thio-phosphate into the DNA of intestinal cells; these cells are known to turnover in adults. Fish can be maintained in distilled water with NovAqua and AmQuel conditioners (U.S. Pat. No. 4,666,610). Goldfish flakes are also added for food. Normal phosphate levels in the aquarium are less than 1 mg/L (Hanna Phosphate Test Kit; Hanna Instruments). Fish are transferred to 100 ml of conditioned media with up to 250 mg/L of thio-phosphate added. […] Fresh media is prepared daily. Fish are sacrificed and DNA prepared from intestinal cells using DNAzol™ (Molecular Research Center Ohio). The DNA samples are then tested for resistance to DNase digestion. Samples are incubated in a 50 ul rxn with ˜lug of DNA and 0.5 units of DNase for 0, 5, 10, 15 min. at room temp. DNA from 250 mg/L thio-phosphate media is much more resistant than wildtype DNA or DNA from 25 mg/L thio-phosphate media. Normal DNA and 25 mg/L thio-phosphate treated DNA is digested after 5 min. while 250 mg/L thio-phosphate treated DNA persists beyond 15 min. of digestion (FIG. 3).

DNA of intestinal cells = test: DNase resistance of intestinal DNA from fish kept in thio-phosphate media; assay type: in vivo, Carassius auratus; details: 0.5 units DNase, room temp.
Description: as §5

Pichia canadensis = test: Growth in phosphate depleted YPD media with thio-phosphate/phosphate ratios; assay type: cell-based; details: phosphate levels ~1 g/L, full range of ratios (100% to 0%)
Description: as §1

S. cerevisiae = test: as above; assay type: cell-based; details: phosphate levels ~1 g/L, full range of ratios (100% to 0%)
Description: as §1

[Na+].[Na+].[Na+].[O-]P([O-])([O-])=S [thio-phosphate, Na3SPO3.XH2O]
ratio of thio-phosphate to normal phosphate at which maximal synthesis occurs ([1]; weight equivalent ratio, grown overnight, following cessation of growth, ratios 100-0 tested): ~10% | increase of FLAG-BAP protein compared to normal media with an equivalent amount of phosphate ([1]; ~10% ratio, dilution assays): about ten fold | stabilization of actin mRNA (yeast actin mRNA): significant stabilization | increase of extracellular nuclease activity (Extracellular nucleases; 10% ratio of thio-phosphate to phosphate): two to three fold increase | effect on extracellular nuclease activity (Extracellular nucleases; ratios above 70%): slightly inhibitory | effect on extracellular nuclease activity (Extracellular nucleases; ratios beyond 30%): not stimulatory | increase of lipase (lipase): less than two fold | BAP activity elevated over controls ([2]; 50% ratio, low lactose levels): several fold | optimal ratio of modified phosphate to phosphate for BAP enzyme activity ([2]; low lactose (0.1%) M9 minimal media, total phosphate 10 g/L): 50% | effect on beta-galactosidase enzyme activity (beta-galactosidase; higher ratios (50-70%)): recovers from inhibition | enhancement of beta-galactosidase activity (beta-galactosidase; in the presence of glucose, 50% ratio of thio-phosphate to phosphate): 10 fold | effect on beta-galactosidase enzyme activity (beta-galactosidase; low ratios of thio-phosphate to phosphate (5-30%)): inhibited | soluble protein levels (bacteria): not enhanced | soluble protein levels (yeast): not enhanced | adverse reactions in fish (Carassius auratus): No adverse reactions | time after which DNA is digested by DNase (DNA of intestinal cells; 25 mg/L thio-phosphate media): ≤ 5 min | time DNA persists under DNase digestion (DNA of intestinal cells; 250 mg/L thio-phosphate media): > 15 min | growth (Pichia canadensis): adequate growth | growth (S. cerevisiae): adequate growth
